PMC4823124, “Selective targeting of BCL6 induces oncogene addiction switching to BCL2 in B-cell lymphoma” (Oncotarget, 2015)

How the values were obtained:
SC-1 = experiment: Growth inhibition (GI50); format: cell-based; details: 48 h, resazurin reduction
Description: (§1) Cells were grown on U-bottom 96-well plates at respective concentrations sufficient to keep untreated cells under exponential growth by the time of read-out after treatment. Cells were exposed to each drug alone and to the combination of both drugs on the same plate in 48 h experiments. In sequential experiments, compounds were added 48 h apart in 72 h experiments. Cell viability was then determined using a fluorometric assay based on the resazurin reduction activity of the cells (Cell Titer Blue, Promega) and confirmed by trypan blue dye-exclusion (Sigma). Fluorescence was determined for controls and three replicates per treatment condition using the Synergy4 microplate reader (BioTek). Standard curves were obtained for each individual cell line with the cell count and fluorescence values. The number of viable cells was obtained using the least-squares regression method of the standard curve and by doing a ratiometric quantification of viable cells normalized to the respective controls. Experiments were conducted in triplicates. A cell killing effect was calculated as the 1 — normalized viability value.

SU-DHL4 = experiment: Growth inhibition (GI50); format: cell-based; details: 48 h, resazurin reduction
Description: as §1

[1] = test system: BCL6-dependent GCB-DLBCL cell lines; experiment: Dose reduction index, MLN4924 or bortezomib after RI-BPI; format: cell-based; details: 8 BCL6-dependent GCB-DLBCL cell lines pre-treated with RI-BPI; all the cell lines tested
Description: as §1

NOXA = NOXA immunoblot; format: cell-based; details: SU-DHL6 and OCI-Ly1 cells, 24 h
Description: (§2) Cell pellets containing 5 × 10^6 cells were washed with ice-cold phosphate buffer saline and lysed with RIPA buffer (Tris-HCl 50mM, NaCl, 150 mM, NP-40 1%, Sodium Deoxylcholate 0.25%, SDS 0.1%), and fresh protease inhibitor cocktail (Roche) was added. Protein concentration in lysates was determined by BCA assay (Pierce) and 15 μg of protein sample were loaded on polyacrylamide electrophoresis pre-cast gels (BioRad). PVDF membranes were blocked with 5% non-fat dry milk (Blotting buffer, BioRad). Experiments were conducted at least in independent triplicates. Densitometry analysis was performed using ImageJ. We used the following primary antibodies: mouse anti-BCL6 (SC-7388, Santa Cruz), rabbit anti-BCL2 (SC-7382, Santa Cruz), rabbit anti-MCL1 (SC-819, Santa Cruz), rabbit anti-BIM (2933S, Cell Signaling Technologies), rabbit anti-BLC-XL (2764S, Cell Signaling Technologies), mouse anti-GAPDH (ab8245, Abcam), rabbit anti-NOXA (Santa Cruz), mouse anti-tubulin (T9026, Sigma-Aldrich), rabbit anti-BMF (ab181148, Abcam) and rabbit anti-caspase 9 (9502, Cell Signaling Technologies).

NFkB (p50, p52, p65) = experiment: NFkB DNA-binding activity assay (TransAM), HBL-1 cells; format: cell-based; details: HBL-1 (ABC-DLBCL) cells; drug at GI50 for 24 h; decreased almost completely
Description: The DNA-binding capacity of NFkB (p50, p52, c-Rel, Rel-B and p65) was assayed by a plate-based assay (TransAM, Active Motif, Carlsbad) following the manufacturer instructions. Briefly, 5×10^6 GCB-DLBCL cells were treated with vehicle, bortezomib or MLN4924 and 10 μg of nuclear lysates were added to the wells containing pre-adsorbed NFkB consensus or competitor (mutant) oligonucleotides. HBL-1 cells (ABC-DLBCL) were used as positive controls for the assay. After incubation and washing, primary anti-NFkB antibody was added to each well, followed by HPR-anti-rabbit secondary antibody. After HRP substrate addition, absorbance was read at 450 nm with a reference wavelength of 655 nm (Synergy4, Biotek). In this assay the absorbance is directly proportional to the quantity of DNA-bound transcription factor present in the sample. Experiments were carried out in four replicates. Results were expressed as mean absorbance values with SEM to mutant probe. P-values were obtained by two-tailed T-test.

NFkB (p50) = experiment: NFkB DNA-binding activity assay (TransAM), OCI-Ly1 cells; format: cell-based; details: drug at GI50 for 24 h, only p50 changed
OCI-Ly1 xenografts = experiment: OCI-Ly1 xenograft tumor growth; format: in vivo; details: OCI-Ly1 xenografts in SCID mice, i.p. 10 days; RI-BPI 25 mg/kg/day, ABT-737 50 mg/kg/day, bortezomib 0.3 mg/kg/day, MLN4924 15 mg/kg every 12 h; p<0.05, T-test
Description: (§3) For these experiments OCI-Ly1 and OCI-Ly7 cells were injected in the right flank of SCID mice (n = 80 for each cell line) and tumor growth was allowed until reaching a volume of 75 - 100 mm^3. […] Tumor growth was measured every day during the 10-day treatment course and the area under the curve (AUC) was calculated.
(§4) Mouse xenografts: Animal procedures followed NIH protocols and were approved by the Animal Institute Committee of the Weill Cornell College or Medicine. SCID mice were subcutaneously injected on the right flank with GCB-DLBCL cell lines OCI-Ly1, OCI-Ly7 and SU-DHL6. Tumor volumes were monitored every day using electronic calipers (Fischer Scientific). When tumor reached a palpable size (around 75 to 100 mm^3) animals were randomized into 8 groups of 10 mice (or four groups of 5 mice for SU-DHL6 xenografts) and treated intraperitoneally accordingly to the schedule and doses shown in Figure 5A. In combinatorial treatments, mice were injected with RI-BPI (or vehicle) alone the first day followed by the combination the subsequent days. We used the area-under-the-curve (AUC) as the quantitative metric to represent the evolution of tumor volume over the time frame (10 – 13 days) of the experiment. The comparisons between treated and control mice were done using MANOVA followed by pair-wise comparison using the two-tailed T-test or Mann Whitney test for SU-DHL6 mice. Rat pharmacokinetic: Animal procedures followed NIH protocols and were conducted by Calvert Laboratories (study 0835RM44.001, Scott Township, PA). Briefly, male Sprague=Dawley rats (n = 3) were injected intravenously with 10 mg/kg of RI-BPI in sterile 50% water:50% saline and whole blood samples were collected through a jugular vein catheter at several time-points. Derived plasma samples were analyzed by HPLC-UV to determine RI-BPI concentration. Pharmacokinetic parameters were estimated using a non-compartmental approach consistent with the route of administration. The AUC that describe the total exposure to RI-BPI was estimated with the linear trapezoidal method and used to derive in vitro exposure doses.

OCI-Ly7 xenografts = experiment: OCI-Ly7 xenograft tumor growth; format: in vivo, SCID mice; details: p<0.05, T-test; for tumor growth at day 10 (AUC of tumor volume) vs vehicle: OCI-Ly7 xenografts in SCID mice, i.p. 10 days, RI-BPI 25 mg/kg/day, obatoclax 2 mg/kg/day, bortezomib 0.3 mg/kg/day, MLN4924 15 mg/kg every 12 h
Description: as §3, §4

[2] = for MPV: C57BL/6 mice, i.p., schedule and doses of xenograft mice (RI-BPI 25, obatoclax 2, bortezomib 0.3 mg/kg/day, MLN4924 15 mg/kg every 12 h), vehicle 6.7
Excerpt: (§5) www.impactjournals.com/oncotarget/ Oncotarget, Supplementary Materials 2015
Hematological and biochemical parameters of C57BL/6 mice treated with the schedule and doses of OCI-Ly1 and OCI-Ly7

OCI-Ly1 lymphoma tissues = experiment: TUNEL assay of xenografted lymphoma tissues; format: in vivo, SCID mice; details: post-treatment OCI-Ly1 lymphoma tissues; Mann-Whitney p = 0.0004 (RI-BPI), 0.002 (obatoclax), 0.0008 (bortezomib)
Description: DNA fragmentation coupled to the apoptotic response was detected in morphologically identifiable nuclei and apoptotic bodies present in formalin-fixed paraffin-embedded tumors by the TUNEL assay (ApopTag, Chemicon, Temecula, California) following the manufacturer's instructions. Tissue slides were pre-treated with 0.5% trypsin for 15 minutes (Zymed, San Francisco, California), to improve the exposure of DNA.

[3] = test system: BCL6-dependent GCB-DLBCL cells; experiment: Growth inhibition (GI50), panel of BCL6-dependent GCB-DLBCL cells; format: cell-based; details: 6 cell lines of the GCB-DLBCL panel; single agent
Description: as §1

BMF = BMF immunoblot; format: cell-based; details: SU-DHL6 cells
Description: as §2

DoHH2 = experiment: Growth inhibition (GI50); format: cell-based; details: 48 h, resazurin reduction
Description: as §1

OCI-Ly7 = experiment: Growth inhibition (GI50); format: cell-based; details: OCI-Ly7 (harbors a BCL2 deletion); Figure 2A, for ABT-737 also ref 14
Description: as §1

SU-DHL6 = experiment: Growth inhibition (GI50); format: cell-based; details: 48 h, resazurin reduction
Description: as §1

[4] = test system: BCL2 independent DLBCL cells; experiment: Dose reduction index, sequential RI-BPI then BH3 mimetic; format: cell-based; details: pre-treated 48 h with RI-BPI, sequential 72 h; all but one (SU-DHL8) of the BCL2 independent DLBCL cell lines, including OCI-Ly7
Description: as §1

OCI-Ly1 cells = experiment: Cell viability of OCI-Ly1 cells transfected with siRNA and treated with ABT-737; format: cell-based; details: ABT-737 250 nM for 72 h
Description: DLBCL cells (3 × 10^6 to 5 × 10^6) were transfected with 1 micromolar siRNA for BCL6 (siBCL6-1 HSS100968 Life Technologies, siBCL6-2 SI00311129 Qiagen, siBCL6-3 SI0031143 Qiagen and siBCL6-4 SI0031150 Qiagen) or control (GFP targeting siRNA) using 96-well electroporation (SF buffer, Lonza).
Cells were grown on U-bottom 96-well plates at respective concentrations sufficient to keep untreated cells under exponential growth by the time of read-out after treatment. Cells were exposed to each drug alone and to the combination of both drugs on the same plate in 48 h experiments. In sequential experiments, compounds were added 48 h apart in 72 h experiments. Cell viability was then determined using a fluorometric assay based on the resazurin reduction activity of the cells (Cell Titer Blue, Promega) and confirmed by trypan blue dye-exclusion (Sigma). Fluorescence was determined for controls and three replicates per treatment condition using the Synergy4 microplate reader (BioTek). Standard curves were obtained for each individual cell line with the cell count and fluorescence values. The number of viable cells was obtained using the least-squares regression method of the standard curve and by doing a ratiometric quantification of viable cells normalized to the respective controls. […] A cell killing effect was calculated as the 1 — normalized viability value.

OCI-Ly4 = experiment: Cell viability, RI-BPI, ABT-737 or combination; format: cell-based; details: BCL6-independent GCB-DLBCL cell line OCI-Ly4; 48 h; quintuplicates
Description: as §1, with “Fluorescence was determined for controls and three replicates per treatment condition using the Synergy4 microplate reader (BioTek).” left out, “Experiments were conducted in triplicates.” left out
as §5
Supplementary Figure S2: Baseline features of DLBCL cells responsive and resistant to RI-BPI. A. Baseline features of
RI-BPI sensitive (S) and resistant (R) groups of DLBCL cells according to cell-of-origin (COO) classification into GCB and ABC groups,
the presence of BCL6 translocation (3q27) and BCL2 mutation (including amplification and translocation). […]

Compound: CC(C)C[C@H](NC(=O)[C@H](Cc1ccccc1)NC(=O)c1cnccn1)B(O)O [bortezomib]
- sensitivity as single agent (GI50) (SC-1): resistant
- sensitivity as single agent (GI50) (SU-DHL4): resistant
- enhancement of response to RI-BPI (dose reduction index) [1]: favorable DRIs
- NOXA protein levels (NOXA): significant stabilization of NOXA
- NFκB activation (DNA binding of p50, p52 and p65) (NFkB (p50, p52, p65)): decreased
- NFκB activation (DNA binding of p50) (NFkB (p50)): mild decrease
- tumor growth at day 10 (AUC of tumor volume) vs vehicle (OCI-Ly1 xenografts): significantly reduced
- tumor growth at day 10 (AUC of tumor volume) vs vehicle (OCI-Ly7 xenografts): significantly reduced
- single-agent efficacy compared between drugs (OCI-Ly7 xenografts; OCI-Ly7 xenografts): more effective than obatoclax
- MPV [2]: 6.6 fL
- toxicity by body weight follow-up, plasma hematology and biochemistry parameters ([2]; mouse, in vivo): mild monocytosis and AST increase
- percent of apoptotic nuclei (TUNEL) vs vehicle control (OCI-Ly1 lymphoma tissues): significantly increased

Compound: NS(=O)(=O)OC[C@@H]1C[C@@H](n2ccc3c(N[C@H]4CCc5ccccc54)ncnc32)C[C@@H]1O [MLN4924]
- GI50 [3]: > 100 nM
- enhancement of response to RI-BPI (dose reduction index) [1]: favorable DRIs
- NOXA protein levels (NOXA): significant stabilization of NOXA
- BMF protein levels (BMF): increased
- NFκB activation (DNA binding of p50, p52 and p65) (NFkB (p50, p52, p65)): decreased
- tumor growth at day 10 (AUC of tumor volume) vs vehicle (OCI-Ly1 xenografts): significantly reduced
- tumor growth at day 10 (AUC of tumor volume) vs vehicle (OCI-Ly7 xenografts): significantly reduced
- MPV [2]: 6.5 fL

Compound: COC1=CC(c2cc3ccccc3[nH]2)=N/C1=C\c1[nH]c(C)cc1C [obatoclax]
- sensitivity as single agent (GI50) (DoHH2): sensitive
- sensitivity as single agent (GI50) (OCI-Ly7): highly resistant
- sensitivity as single agent (GI50) (SC-1): sensitive
- sensitivity as single agent (GI50) (SU-DHL4): sensitive
- sensitivity as single agent (GI50) (SU-DHL6): sensitive
- sensitivity to BH3 mimetic after RI-BPI treatment (dose reduction index) [4]: gained sensitivity
- tumor growth at day 10 (AUC of tumor volume) vs vehicle (OCI-Ly7 xenografts): significantly reduced
- MPV [2]: 6.4 fL
- percent of apoptotic nuclei (TUNEL) vs vehicle control (OCI-Ly1 lymphoma tissues): significantly increased

Compound: CN(C)CC[C@H](CSc1ccccc1)Nc1ccc(S(=O)(=O)NC(=O)c2ccc(N3CCN(Cc4ccccc4-c4ccc(Cl)cc4)CC3)cc2)cc1[N+](=O)[O-] [ABT-737]
- loss of viability (OCI-Ly1 cells; OCI-Ly1 transfected with BCL6 siRNA, BCL6 knockdown alone 68%, p < 0.03, T-test): 97%
- cells killed (loss of viability) (OCI-Ly1 cells; OCI-Ly1 transfected with control siRNA): 57%
- sensitization to RI-BPI by pre-treatment with ABT-737 (OCI-Ly4): failed to sensitize
- sensitivity as single agent (GI50) (DoHH2): sensitive
- sensitivity as single agent (GI50) (OCI-Ly7): highly resistant
- sensitivity as single agent (GI50) (SC-1): sensitive
- sensitivity as single agent (GI50) (SU-DHL4): sensitive
- sensitivity as single agent (GI50) (SU-DHL6): sensitive
- sensitivity to BH3 mimetic after RI-BPI treatment (dose reduction index) [4]: gained sensitivity
- tumor growth at day 10 (AUC of tumor volume) vs vehicle (OCI-Ly1 xenografts): significantly reduced
